Results taken from patent US10851062B2, “Substituted heteroaryl compound, composition containing same, and application thereof” (Shenzhen TargetRx, Inc., priority 2016, dated 2020).
Like-named read-outs stand apart in the source and are kept apart here.

Legend:
[1] = Pharmacokinetic evaluation in rats; format: in vivo, Sprague-Dawley rats; conditions: rat; for AUC(0-inf) / AUC(0-t) / Tmax / MRT inf / F / half-life / Cmax: male, Sprague-Dawley; for AUC(0-inf) / AUC(0-t) / Tmax / MRT inf / Cmax: plasma; for MRT inf: read-out: MRTINF_pred; for F / half-life: in vivo
Experimental: 6 male Sprague-Dawley rats (7-8 weeks old, and weighing approximately 210 g) were divided into 2 groups with 3 rats in each group. The rats were intravenously or orally administered a single dose of compound (3 mg/kg intravenously, 10 mg/kg orally) to compare pharmacokinetic differences.
The rats were raised on standard food and water. Fasting was started 16 hours before the test. The drug was dissolved with PEG400 and dimethyl sulfoxide. The blood samples were collected from eyelids at the time points of 0.083 hours, 0.25 hours, 0.5 hours, 1 hour, 2 hours, 4 hours, 6 hours, 8 hours, 12 hours, and 24 hours after administration.
Rats were briefly anesthetized after inhalation of diethyl ether and 300 μL of blood sample was collected from the eyelids into test tubes. There was 30 μL of 1% heparin salt solution in the test tube. Tubes were dried at 60° C. overnight before use. After the blood sample was collected at a later time point, the rats were sacrificed after ether anesthesia.
Immediately after the collection of the blood sample, the test tube was gently inverted at least 5 times to ensure sufficient mixing and then placed on ice. The blood sample was centrifuged at 5000 rpm at 4° C. for 5 minutes to separate the plasma from the red blood cells. 100 μL of plasma was aspirated into a clean plastic centrifuge tube with a pipette, marking with the name of the compound and time point. Plasma was stored at −80° C. prior to analysis. The concentration of the compound of the present disclosure in plasma was determined by LC-MS/MS. The pharmacokinetic parameters were calculated based on the blood concentration of each animal at different time points.

[2] = Metabolic stability in rat liver microsomes; format: in vitro ADME, SD rat; conditions: rat liver microsomes 0.5 mg/mL, compound 1 μM, NADPH, 37° C.; for microsomal CLint at 1 μM / half-life at 1 μM: Sprague-Dawley, pH 7.4; for half-life at 1 μM: read-out: t1/2 in rat liver microsomes
Experimental: (§1) Experiments in microsomes: Human liver microsomes: 0.5 mg/mL, Xenotech; Rat liver microsomes: 0.5 mg/mL, Xenotech; Coenzyme (NADPH/NADH): 1 mM, Sigma Life Science; Magnesium chloride: 5 mM, 100 mM phosphate buffer (pH 7.4).
(§2) Preparation of stock solution: Powder of the example compound 1-7 was accurately weighed and dissolved in DMSO to 5 mM. Preparation of phosphate buffer (100 mM, pH7.4): A pre-formulated 0.5M potassium dihydrogen phosphate (150 mL) was mixed with 0.5M dibasic potassium phosphate (700 mL). The pH of the mixture was adjusted to 7.4 with 0.5M dibasic potassium phosphate solution. The mixture was diluted 5-fold with ultrapure water before use, and magnesium chloride was added to obtain a phosphate buffer (100 mM) containing 100 mM potassium phosphate, 3.3 mM magnesium chloride, pH 7.4. A NADPH regeneration system solution (containing 6.5 mM NADP, 16.5 mM G-6-P, 3 U/mL G-6-PD, 3.3 mM magnesium chloride) was prepared and placed on wet ice prior to use. Preparation of stop solution: acetonitrile solution containing 50 ng/mL propranolol hydrochloride and 200 ng/mL tolbutamide (internal standard). 25057.5 μL of phosphate buffer (pH 7.4) was taken into a 50 mL centrifuge tube, to which 812.5 μL human liver microsomes were added, and mixed to obtain a liver microsome dilution solution with a protein concentration of 0.625 mg/mL. 25057.5 μL of phosphate buffer (pH 7.4) was taken into a 50 mL centrifuge tube, to which 812.5 μL SD rat liver microsomes were added, and mixed to obtain a liver microsome dilution solution with a protein concentration of 0.625 mg/mL.
(§3) Incubation of the samples: The stock solution of the respective compound was respectively diluted to 0.25 mM with an aqueous solution containing 70% acetonitrile, and used as a working solution, ready for use. 398 μL of the dilution solution of human liver microsomes or rat liver microsome were added to a 96-well incubation plate (N=2), respectively, and 2 μL of 0.25 mM working solution was added and mixed.
(§4) Metabolic stability assay: 300 μL of pre-chilled stop solution was added to each well of a 96-well deep well plate and placed on ice as a stop plate. The 96 well incubation plate and NADPH regeneration system were placed in a 37° C. water bath box, shaken at 100 rpm and pre-incubated for 5 min. 80 μL of incubation solution was taken out from each well of the incubation plate and added to the stop plate, mixed, and replenished with 20 μL of NADPH regeneration system solution as a 0-min sample. 80 μL of NADPH regeneration system solution was added to each well of the incubation plate to start the reaction and start counting. […] Separately, 100 μL of the reaction solution was taken at 10, 30, and 90 min reaction, respectively, added to a stop plate, and vortexed for 3 minutes to terminate the reaction. The stop plate was centrifuged at 5000×g at 4° C. for 4 min. 100 μL of the supernatant was added to a 96-well plate to which 100 μL of distilled water was previously added, mixed, and analyzed by LC-MS/MS.
(§5) Data analysis: The peak areas of the corresponding compound and internal standard were detected by LC-MS/MS system, and the ratio of the peak area of the compound to the internal standard was calculated. The slope was measured by plotting the natural logarithm of the percent of compound remaining versus time, and t1/2 and CLint were calculated according to the formula, where V/M is equal to 1/protein concentration.

[3] = Metabolic stability in human liver microsomes; format: in vitro ADME; conditions: pH 7.4, human liver microsomes 0.5 mg/mL, compound 1 μM, NADPH, 37° C.; for half-life at 1 μM: read-out: t1/2 in human liver microsomes
Experimental: as §1, §2, §3, §4, §5

Compound | AUC(0-inf) ([1]; IV, 3 mg/kg single dose) [µg·h/mL] | AUC(0-t) ([1]; IV, 3 mg/kg single dose) [µg·h/mL] | Tmax ([1]; IV, 3 mg/kg single dose) [h] | MRT inf ([1]; IV, 3 mg/kg single dose) [h] | AUC(0-inf) ([1]; PO, 10 mg/kg single dose) [µg·h/mL] | AUC(0-t) ([1]; PO, 10 mg/kg single dose) [µg·h/mL] | Tmax ([1]; PO, 10 mg/kg single dose) [h] | MRT inf ([1]; PO, 10 mg/kg single dose) [h] | F [1] [%] | half-life ([1]; iv, 3 mg/kg) [h] | half-life ([1]; po, 10 mg/kg) [h] | Cmax ([1]; IV, 3 mg/kg single dose) [ng/mL] | Cmax ([1]; PO, 10 mg/kg single dose) [ng/mL] | Vz_pred ([1]; IV, 3 mg/kg single dose) [L/kg] | Vz_pred ([1]; PO, 10 mg/kg single dose) [L/kg] | microsomal CLint at 1 μM [2] [µL/min/mg] | half-life at 1 μM [2] [h] | microsomal CLint at 1 μM [3] [µL/min/mg] | half-life at 1 μM [3] [h] | also measured
[2H]C([2H])(NC(=O)c1nc(C)c2cc(Oc3ccccc3)ccc2c1O)C(=O)O [Compound 11, N-[(4-hydroxy-1-methyl-7-phenoxy-3-isoquinolinyl)carbonyl]-2,2-d2-glycine] | 51.6 | 51.6 | 0.08 | 2.84 | 261 | 260 | 4 | 5.87 | 151.17 | 2.43 | 2.77 | 19000 | 24600 | 0.21 | 0.16 | < 8.6 | > 2.42 | – | – | –
[2H]Cc1nc(C(=O)NCC(=O)O)c(O)c2ccc(Oc3ccccc3)cc12 [Compound 13, N-[(4-hydroxy-1-d-methyl-7-phenoxy-3-isoquinolinyl)carbonyl] glycine] | – | – | – | – | – | – | – | – | – | – | – | – | – | – | – | < 8.6 | > 2.42 | < 8.6 | > 2.42 | –
[2H]C([2H])(NC(=O)c1nc(C([2H])([2H])[2H])c2cc(Oc3ccccc3)ccc2c1O)C(=O)O [Compound 36, N-[(4-hydroxy-1-(d3-methyl)-7-phenoxy-3-isoquinolinyl)carbonyl]-2,2-d2-glycine] | – | – | – | – | – | – | – | – | – | – | – | – | – | – | – | < 8.6 | > 2.42 | < 8.6 | > 2.42 | –
[2H]c1c([2H])c([2H])c(Oc2ccc3c(O)c(C(=O)NC([2H])([2H])C(=O)O)nc(C)c3c2)c([2H])c1[2H] [Compound 48, N-[(4-hydroxy-1-methyl-7-(d5-phenoxy))-3-(3-isoquinolinyl)carbonyl]-2,2-d2-glycine] | – | – | – | – | – | – | – | – | – | – | – | – | – | – | – | < 8.6 | > 2.42 | < 8.6 | > 2.42 | –
[2H]c1cccc(Oc2ccc3c(O)c(C(=O)NC([2H])([2H])C(=O)O)nc(C)c3c2)c1 [Compound 49, N-[(4-hydroxy-1-methyl-7-(3-d-phenoxy)-3-isoquinolinyl)carbonyl]-2,2-d2-glycine] | 49.5 | 49.4 | 0.08 | 2.85 | 222 | 218 | 2.67 | 5.83 | 132.44 | 2.89 | 3.33 | 19500 | 25400 | 0.25 | 0.24 | < 8.6 | > 2.42 | < 8.6 | > 2.42 | –
Cc1nc(C(=O)NCC(=O)O)c(O)c2ccc(Oc3ccccc3)cc12 [FG-4592, reference compound] | 63.8 | 63.8 | 0.08 | 2.82 | 196 | 196 | 2.83 | 5.03 | 92.21 | 2.08 | 2.78 | 21100 | 22100 | 0.15 | 0.20 | < 8.6 | > 2.42 | < 8.6 | > 2.42 | –
N-[(4-hydroxy-1-(d-methyl)-7-phenoxy-3-isoquinolinyl) carbonyl]-2,2-d2-glycine [Compound 34] | – | – | – | – | – | – | – | – | – | – | – | – | – | – | – | – | – | – | – | CLint in rat liver microsomes [2]: <8.6 µL/min/mg; t1/2 in rat liver microsomes [2]: >2.42 h

Further lines, with some results ahead:

AUC(0-inf) ([1]; IV, 3 mg/kg single dose) [µg·h/mL] | AUC(0-t) ([1]; IV, 3 mg/kg single dose) [µg·h/mL] | Tmax ([1]; IV, 3 mg/kg single dose) [h] | MRT inf ([1]; IV, 3 mg/kg single dose) [h] | AUC(0-inf) ([1]; PO, 10 mg/kg single dose) [µg·h/mL] | AUC(0-t) ([1]; PO, 10 mg/kg single dose) [µg·h/mL] | Tmax ([1]; PO, 10 mg/kg single dose) [h] | MRT inf ([1]; PO, 10 mg/kg single dose) [h] | F [1] [%] | half-life ([1]; iv, 3 mg/kg) [h] | half-life ([1]; po, 10 mg/kg) [h] | Cmax ([1]; IV, 3 mg/kg single dose) [ng/mL] | Cmax ([1]; PO, 10 mg/kg single dose) [ng/mL] | Vz_pred ([1]; IV, 3 mg/kg single dose) [L/kg] | Vz_pred ([1]; PO, 10 mg/kg single dose) [L/kg] | microsomal CLint at 1 μM [2] [µL/min/mg] | half-life at 1 μM [2] [h] | microsomal CLint at 1 μM [3] [µL/min/mg] | half-life at 1 μM [3] [h] | Compound | also measured
– | – | – | – | – | – | – | – | – | – | – | – | – | – | – | < 8.6 | > 2.42 | < 8.6 | > 2.42 | [2H]c1cc([2H])c(Oc2ccc3c(O)c(C(=O)NCC(=O)O)nc(C)c3c2)c([2H])c1 [Compound 23] | –
55.9 | 55.9 | 0.75 | 3.14 | 185 | 185 | 0.83 | 5.33 | 99.05 | 2.49 | 2.43 | 12200 | 17700 | 0.18 | 0.21 | < 8.6 | > 2.42 | < 8.6 | > 2.42 | [2H]c1c([2H])c([2H])c(Oc2ccc3c(O)c(C(=O)NCC(=O)O)nc(C)c3c2)c([2H])c1[2H] [Compound 32, N-[(4-hydroxy-1-methyl-7-(d5-phenoxy)-3-isoquinolinyl)carbonyl] glycine] | –
– | – | – | – | – | – | – | – | – | – | – | – | – | – | – | < 8.6 | > 2.42 | < 8.6 | > 2.42 | [2H]c1cccc(Oc2ccc3c(O)c(C(=O)NCC(=O)O)nc(C)c3c2)c1 [Compound 46, N-[(4-hydroxy-1-methyl-7-(3-d-phenoxy)-3-isoquinolinyl)carbonyl]glycine] | –
– | – | – | – | – | – | – | – | – | – | – | – | – | – | – | < 8.6 | > 2.42 | < 8.6 | > 2.42 | [2H]c1cc([2H])c(Oc2ccc3c(O)c(C(=O)NC([2H])([2H])C(=O)O)nc(C)c3c2)c([2H])c1 [Compound 47] | –
